Measurements taken from patent US6610289B2, “Mutated herpes simplex virus type 1 thymidine kinases and uses thereof” (The Board of Trustees of the University of Arkansas, priority 1998, dated 2003).
Where a chain is given by its changes, count along the chain named.

How the values were obtained:
[1] = biological target: T1, HSV-1 TK (Human herpesvirus 1, UniProt P0DTH5, Q125N); details: previous study (17); cited from earlier work
T1 construct: glutathione-S-transferase (GST)
T1 sequence (P0DTH5 1-376 Q125N): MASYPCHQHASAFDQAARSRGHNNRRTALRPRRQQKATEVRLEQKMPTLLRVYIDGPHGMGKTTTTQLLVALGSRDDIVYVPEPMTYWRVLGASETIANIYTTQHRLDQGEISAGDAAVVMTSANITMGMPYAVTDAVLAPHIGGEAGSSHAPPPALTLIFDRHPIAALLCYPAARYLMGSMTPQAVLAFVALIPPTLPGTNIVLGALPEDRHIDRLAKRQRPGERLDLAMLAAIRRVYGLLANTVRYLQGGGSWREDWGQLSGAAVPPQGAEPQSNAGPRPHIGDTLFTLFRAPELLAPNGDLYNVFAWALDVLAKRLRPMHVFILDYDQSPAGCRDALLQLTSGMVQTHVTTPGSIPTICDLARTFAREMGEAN

[2] = system: HCT-116 cells; experiment: Metabolic labeling with [^3H]GCV, [^3H]thymidine, [^3H]dC, HCT-116 cell clones; assay type: cell-based, human; details: for Phosphorylated metabolite GCVDP / Phosphorylated metabolite GCVMP / Phosphorylated metabolite GCVTP: 116; for Phosphorylated metabolite TMP / Phosphorylated metabolite TTP: 116, [^3H]thymidine labeled
Description: For metabolic labeling, cells (1-2×10^6) were labeled in triplicate with 2 μCi [^3H]GCV ([…]) for 18 hours, then nucleotides were extracted from pelleted cells in 0.2 ml 70% methanol at 4° C. for 15 minutes as previously described (21, 24). An aliquot of each methanol soluble supernatant was analyzed for radioactivity by scintillation counting. The methanol insoluble pellets, representative of a crude DNA fraction, were resuspended in 0.15 ml water and also counted for radioactivity. For deoxpyrimidines, cells were grown to confluency in 60 cm^2 plates, and either 2 μCi [^3H]thymidine (2 μM final) or 2 μCi [^3H]dC (10 μM final) were added for 1 or 2 hours respectively prior to extraction in 70% methanol. Methanol-soluble extracts were concentrated by evaporation under nitrogen, and separated on PEI-cellulose thin layer chromatography plates developed in 0.8 M LiCl for GCV or 0.35 M LiCl for thymidine/dC as previously described (21).
NIH3T3 fibroblasts and the human tumor cell line HCT-116 were transfected with wild-type HSV-1TK or with one of three site specific mutants of amino acid Gln-125. From a panel of multiple HSV-1TK expressing clones, a subset of clones from each cell line expressing wild-type HSV-1 TK, the Asn-125 HSV-1 TK mutant (Asn-125TK) and the Glu-125 HSV-1 TK mutant (Glu-125TK) were selected for comparatively equivalent levels of HSV-1 TK protein expression based on Western blot determinations. In this study, these two sets of HSV-1 TK-expressing NIH 3T3 and HCT-116 cell lines were evaluated for intracellular metabolism of [^3H]GCV, [^3H]thymidine, or [^3H]dC. Cells were labeled with [^3H]GCV for 18 hours, then nucleotides were extracted in ice-cold 70% methanol as previously described (21, 24). The data in Table 3 summarize the amount of total nucleotide metabolites isolated in the methanol-soluble extracts (pmol/10^6 cells) as well as the total amount of methanol-insoluble metabolites representative of incorporation into DNA.
The methanol-soluble metabolites were further separated into their constituent phosphorylated GCV metabolites by thin layer chromatography (21).
Cells were grown to confluency and labeled with either [^3H]thymidine or [^3H]dC for 1 or 2 hours respectively prior to methanol extraction.

[3] = biological target: T2, HSV-1 TK (Human herpesvirus 1, UniProt P0DTH5); experiment: Photoaffinity labeling with [^32P]5-azido-dUMP; assay type: binding, herpes simplex virus type 1; parameters: made in house; host or cells: E. coli BL21SY211 (pET-9a derived pET-TK1); details: FIG. 1, autoradiograph
T2 sequence (P0DTH5 1-376): T1 sequence (P0DTH5 1-376 Q125N) with N125Q
Description: The TMP photoaffinity analog, [^32P]5-N3dUMP, was synthesized enzymatically using HSV-1 TK, 5-azido-deoxyuridine and [g-^32P]ATP as previously described (10, 12). For photolabeling studies, 10 μg of the DE-52/heparin agarose purified HSV-TKs were incubated with 10 mM [^32P]5-N3dUMP for 10 seconds. The sample was then irradiated for 90 seconds with a hand-held UV lamp (254 nm UVP-11, Ultraviolet Products, Inc.) at a distance of 3 cm. Reactions were terminated by addition of an equal volume of 10% TCA, incubated on ice for 10 minutes, and pelleted by centrifugation at 13,000×g for 5 minutes. The protein was resuspended in a solubilization mixture (23) and separated on 10% SDS-polyacrylamide gels. Dried gels were exposed to film for 2 days.
The thymidine and TMP photoaffinity analog, [^32p]5-azido-dUMP, has proven useful as an active-site cross-linking reagent for studying HSV-1 TK (10, 12). This analog was used for photocrosslinking of the four HSV-1 TKs.

[4] = biological target: T3, HSV-1 TK (Human herpesvirus 1, UniProt P0DTH5, Q125E); details: previous study (17); cited from earlier work
T3 construct: glutathione-S-transferase (GST)
T3 sequence (P0DTH5 1-376 Q125E): T1 sequence (P0DTH5 1-376 Q125N) with N125E

Row | Substance | Increase in the Km of ACV [1] [fold] | Increase in the Km of thymidine [1] [fold] | Phosphorylated metabolite GCVDP [2] [pmol/10^6 cells] | Phosphorylated metabolite GCVMP [2] [pmol/10^6 cells] | Phosphorylated metabolite GCVTP [2] [pmol/10^6 cells] | Phosphorylated metabolite TMP [2] [pmol/10^6 cells] | Phosphorylated metabolite TTP [2] [pmol/10^6 cells] | Photoincorporation of [^32P]5-azido-dUMP [3] | Thymidine and ACV phosphorylation activities [4] | Decrease in GCVTP levels ([2]; HCT-116 cells, compared to wild-type and Asn-125TK cells) [fold]
1 | Asn-125 | 3 | 50 | 104 | 95 | 533 | 0.2 | 0.9 |  |  | 
2 | Gln-125 (WT): wild-type herpes simplex virus type 1 thymidine kinase with glutamine at position 125, parent enzyme [reference compound] |  |  | 101 | 96 | 415 | 1.2 | 9.5 | photoincorporated efficiently |  | 
3 | Glu-125 |  |  | 2.5 | 3.0 | 18 | 0.2 | 0.4 |  | no detectable activities | ≥ 23
